Data on 1 compound can be found in publication PMC4109617, “The functionalized amino acid (S)-Lacosamide subverts CRMP2-mediated tubulin polymerization to prevent constitutive and activity-dependent increase in neurite outgrowth” (Frontiers in Cellular Neuroscience, 2014).

The target in this test is T1, CRMP2 (collapsin response mediator protein 2) (Rattus norvegicus, UniProt P47942).
T1 construct: gene Dpysl2; purified recombinant wild-type CRMP2 (GST construct), NT647-labeled
As to the kind of experiment: microscale thermophoresis (MST), Hill fit. Type of test: binding.

What is called Kd is the free concentration of one partner at which half of the binding sites on the other are occupied at equilibrium, for simple one-to-one binding.

Compound `COC[C@H](NC(C)=O)C(=O)NCc1ccccc1` [(S)-LCM, (S)-lacosamide] registered a Kd of 1500 ± 10 nM.
